In patent US10577357B2, “Inhibitors of LDLR-PCSK9 protein-protein interaction and methods of their use” (The Texas A&M University System, priority 2016, dated 2020):

These molecules were tested against T1, PCSK9 (Homo sapiens, UniProt Q8NBP7) (assay: LDL-uptake assay (BODIPY-LDL) in HepG2 cells with added PCSK9). Conditions: inhibitors 50 μM preincubated with 10 μg/mL PCSK9 for 30 min, BODIPY-LDL 10 μg/mL, quintuplicate.
T1 construct: host or cells: exogenous PCSK9 protein added to HepG2 cells
T1 sequence (Q8NBP7 153-692): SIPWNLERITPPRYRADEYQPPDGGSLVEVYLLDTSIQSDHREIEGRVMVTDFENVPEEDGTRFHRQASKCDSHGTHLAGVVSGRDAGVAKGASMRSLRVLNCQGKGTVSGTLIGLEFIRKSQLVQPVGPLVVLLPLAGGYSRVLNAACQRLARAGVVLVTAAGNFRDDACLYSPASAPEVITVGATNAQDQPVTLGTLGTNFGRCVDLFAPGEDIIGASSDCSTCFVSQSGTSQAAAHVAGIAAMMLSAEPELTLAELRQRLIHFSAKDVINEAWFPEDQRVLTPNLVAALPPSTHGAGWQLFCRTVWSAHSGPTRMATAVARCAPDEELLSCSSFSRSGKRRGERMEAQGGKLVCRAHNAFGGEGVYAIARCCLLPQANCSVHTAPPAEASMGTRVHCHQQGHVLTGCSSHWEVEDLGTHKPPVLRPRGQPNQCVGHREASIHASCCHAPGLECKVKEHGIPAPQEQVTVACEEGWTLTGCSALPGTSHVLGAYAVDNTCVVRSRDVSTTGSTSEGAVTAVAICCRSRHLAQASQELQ
T1 sequence (Q8NBP7 31-152 partner limits assumed): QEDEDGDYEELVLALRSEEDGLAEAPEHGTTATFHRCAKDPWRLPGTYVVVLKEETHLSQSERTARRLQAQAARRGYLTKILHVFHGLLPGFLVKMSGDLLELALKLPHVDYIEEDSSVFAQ
Assay type: cell-based
Experimental: LDL-uptake assay was performed in quintuplicate following a published procedure with some modifications. HepG2 cells were seeded into 96-well plate at a density of 3×10^4 cells/well in DMEM with 10% FBS medium (Sigma-Aldrich). After a period of 24 h, the medium was aspirated and cells were washed with PBS twice. Cells were treated with 10% lipoprotein-deficient serum (Gemini) in DMEM and incubated for another 24 h. After washing cells with PBS twice, cells were incubated 2 h with either 100 μL of Pep2-8 (30 μM), inhibitors at various concentrations (50 μM), or negative control (DMSO), which were preincubated with 10 μg/mL PCSK9 in 10% lipoprotein-deficient DMEM at 0.5% DMSO level for 30 min prior. A positive control was also performed, in a similar fashion but in the absence of PCSK9. BODIPY-LDL (10 μg/mL, Invitrogen) was added to each well and cells were incubated for another 3 h. Cells were washed three times with PBS, and fluorescent intensity was measured on Synergy H4 plate reader (Biotek) with excitation and emission wavelength at 488 and 520 nm, respectively.
`CC(C)C[C@H](C(=O)N1CCN([C@@H](CC(N)=O)C(=O)N[C@@H](CCCNC(=N)N)C(=O)NC2CCOC2=O)CC1)N1C(=O)N[C@@H](CC(=O)O)C1=O` (stereo partly shown) [KB2234] was tested, and the activity at 50 µM was 8.7 ± 5.9%. In the case of `CC(C)C[C@H](C(=O)N1CCN([C@@H](CC(N)=O)C(=O)N[C@@H](CCCNC(=N)N)C(=O)NCCC(=O)O)CC1)N1C(=O)N[C@@H](CC(=O)O)C1=O` [KB2274], the activity at 50 µM is reported as 13.5 ± 4.3%. Molecule `N=C(N)NCCC[C@@H](NC(=O)[C@H](CC(=O)O)N1CCN(C(=O)[C@H](CC(N)=O)N2C(=O)N[C@@H](CCC(N)=O)C2=O)CC1)C(=O)NCCC(=O)O` [KB2275] has an activity at 50 µM of 8.6 ± 1.5%. `CC(C)C[C@@H](C(=O)N[C@H](CCCNC(=N)N)C(=O)NCCC(=O)O)N1CCN(C(=O)[C@H](CS)N2C(=O)N[C@H](CC(N)=O)C2=O)CC1` [KB2276] was tested, and the activity at 50 µM was 19 ± 4.7%.
